This experiment in a line: In vitro phosphorus binding efficacy in rumen fluid, three phases mimicking the digestive tract of a ruminant (Thilsing et al.). More on the design: species or system ruminant animal; Phosphate binding in comparison to control, % / P binding in comparison to control, %: concentration or dose not given beside the values.
Setting [1] is: Table 1, from free phosphate, relative to Zeolite 4A.
[2] abbreviates: Table 1, from free phosphate, relative to untreated control.
Where [3] appears, read: Table 2, phase 3 binding capacity, relative to Zeolite 4A.
Setting [4] is: Table 2, phase 3 binding capacity, relative to control.
Setting [5] is: phase 3 (after HCl and HCO3-, mimicking small intestine).
[6] abbreviates: statement in words on Tables 1 and 2.
Where [7] appears, read: supernatant of rumen fluid after addition of HCl and HCO3-, 0.06 g compound/8 ml rumen fluid.

Several values for one entry are separate records, joined by “and”; a condition that tells them apart may be missing. Equal values may be shown once. Read-outs that look alike come from different tables or passages of the source.

As for `[Cl][Al]([Cl])[Cl]` [Aluminium chloride], the “Phosphate binding in comparison to 4A, %” value under setting [1] is 45.6% and the “Phosphate binding in comparison to 4A, %” value under setting [3] came out at 94%. Also, the “Phosphate binding in comparison to control, %” value under setting [2] worked out at 64.3%. Moreover, the “P binding in comparison to control, %” value under setting [4] is listed as 96%. Moreover, the “Phosphate Binding Capacity” value under setting [5] was 88.9 mg Phosphate/gram of compound. The “Phosphorus binding compared to other compounds, including Zeolite 4A alone” value under setting [6] is given as “superior”. Moreover, under setting [7], the “Free Phosphate” value is listed as 7.0 mmol.
As to `O=S(=O)([O-])[O-].[Fe+2]` [Iron (II) sulphate], the “Free Phosphate” value is reported as 8.2 mmol; the “P binding in comparison to control, %” value was 75%; the “Phosphate Binding Capacity” value was 69.3 mg Phosphate/gram of compound; the “Phosphate binding in comparison to 4A, %” value was 36.5% and 56%. In addition, the “Phosphate binding in comparison to control, %” value is listed as 58.3% and the “Phosphorus binding compared to other compounds, including Zeolite 4A alone” value is listed as “superior”.
With `O=C([O-])[O-].O=C([O-])[O-].O=C([O-])[O-].[La+3].[La+3]` [Lanthanum carbonate, hydrated, reference compound], the “Phosphate binding in comparison to 4A, %” value by setting is: under setting [1], 22.6%; under setting [3], 72%. The “Phosphate binding in comparison to control, %” value under setting [2] amounted to 49.2%. The “P binding in comparison to control, %” value under setting [4] is 84%. The “Phosphate Binding Capacity” value under setting [5] is on record as 77.7 mg Phosphate/gram of compound. Moreover, the “Phosphorus binding compared to other compounds, including Zeolite 4A alone” value under setting [6] is recorded as “superior”. The “Free Phosphate” value under setting [7] stood at 10.0 mmol.
For `[Cl][La]([Cl])[Cl]` [Lanthanum chloride], the “Phosphate binding in comparison to 4A, %” value under setting [1] was determined as 51.1% and the “Phosphate binding in comparison to 4A, %” value under setting [3] is 62%. The “Phosphate binding in comparison to control, %” value under setting [2] was determined as 67.9%. Under setting [4], the “P binding in comparison to control, %” value is on record as 79%. For the same compound, the “Phosphate Binding Capacity” value under setting [5] is 72.8 mg Phosphate/gram of compound. Under setting [6], the “Phosphorus binding compared to other compounds, including Zeolite 4A alone” value is given as “superior”. For the same compound, the “Free Phosphate” value under setting [7] worked out at 6.3 mmol.

(Values after patent US20260207659A1, “COMPOSITIONS FOR USE IN THE PROPHYLACTIC TREATMENT OF HYPOCALCEMIA IN A RUMINANT ANIMAL” (VILOFOSS A/S, priority 2022, published 2026).)
